Data from paper PMC10788925 (Journal of Medicinal Chemistry, 2023).

Assays:
SARS-CoV-2 = assay: microbe, parasite or virus in culture; type: cell-based
RVFV strain MP-12 = assay: microbe, parasite or virus in culture; type: cell-based; details: Rift Valley fever virus
Vero E6 cells = details: African green monkey (Chlorocebus sp.)
HEV-3 replicon p6-Gluc = assay: microbe, parasite or virus in culture; type: cell-based, Hepatitis E virus; details: for EC50 / EC90: Hepatitis E virus
in vitro [1] = assay: in vitro
in vitro [2] = details: human
Huh-7 cells = details: human
in vitro [3] = details: human; remark: listed apart in the source
CHIKV LR2006-OPY1 = assay: microbe, parasite or virus in culture; type: cell-based; details: Chikungunya virus
[4] = Severe acute respiratory syndrome coronavirus 2, Vero C1008, 24 h
[5] = Severe acute respiratory syndrome coronavirus 2, Vero C1008, 48 h

## COC(=O)[C@H]1[C@@H](O)[C@@]2(O)c3c(OC)cc(Br)cc3O[C@@]2(c2ccc(OC)cc2)[C@@H]1c1ccccc1 (racemic) [9m, (±)-Methyl (1R,2R,3S,3aR,8bS)-6-bromo-1,8b-dihydroxy-8-methoxy-3a-(4-methoxyphenyl)-3-phenyl-2,3,3a,8b-tetrahydro-1H-cyclopenta[b]benzofuran-2-carboxylate]
SARS-CoV-2; [4]
  EC50: 0.0339 µM
  EC90: 0.0404 µM
SARS-CoV-2; [5]
  EC50: 0.0478 µM
  EC90: 0.08 µM
RVFV strain MP-12; Vero C1008, 24 h
  EC50: 0.0266 µM
  EC90: 0.0394 µM
RVFV strain MP-12; Vero C1008, 48 h
  EC50: 0.0433 µM
  EC90: 0.0532 µM
Vero E6 cells
  CC50: > 1 µM
HEV-3 replicon p6-Gluc
  antiviral response at higher cell density: decreased
HEV-3 replicon p6-Gluc; HepG2, 24 h
  EC50: 0.0031 µM
  EC90: 0.0407 µM
HEV-3 replicon p6-Gluc; HepG2, 48 h
  EC50: 0.0014 µM
  EC90: 0.0306 µM
In vitro [1]; African green monkey (Chlorocebus sp.)
  CC50: > 1 µM
In vitro [1]; chlorocebus sabaeus, CC50
  CC50: > 1 µM
In vitro [2]
  CC50 at 24 h: 0.421 µM
  CC50 at 48 h: 0.0138 µM
HepG2 cells
  cell viability at higher cell density: improved
Huh-7 cells
  CC50: > 1 µM
In vitro [3]
  CC50: > 1 µM
CHIKV LR2006-OPY1; Huh-7, 24 h
  EC50: 0.0021 µM
  EC90: 0.0123 µM
CHIKV LR2006-OPY1; Huh-7, 48 h
  EC50: 0.0029 µM
  EC90: 0.0098 µM
